Type in all cases: cell-based
The subject of series [1] is Acinetobacter baumannii NCTC 13304 (OXA-27). The note with it: NCTC 13304. The procedure, abridged:
(§1)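 MIC by CLSI broth microdilution; MH broth; final drug 64–0.03 mg/L, 2-fold; inoculum (2-4) × 10^5 CFU/mL from 0.5 McFarland suspension of 18-24 h colonies; 35-37°C, 16-20 h; growth controls included.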

Series [2] relates to Klebsiella pneumoniae KPN+19-15. The note with it: KPN+19-15. The method in brief: as §1
For series [3], the system named is Klebsiella pneumoniae ATCC BAA-1705 (KPC). The note with it: ATCC BAA-1705. The procedure, abridged: as §1
For series [4], the system named is Escherichia coli ATCC BAA-2523. The note with it: ATCC BAA-2523. The procedure, abridged: as §1
Series [5] relates to Acinetobacter baumannii ABA19-1. The note with it: ABA19-1. The procedure, abridged:
as §1

For series [6], the system named is Pseudomonas aeruginosa ATCC 27853. The note with it: ATCC 27853. The method in brief: as §1
In series [7] the test system is Escherichia coli ATCC BAA-2340 (KPC). The note with it: ATCC BAA-2340. The procedure, abridged: as §1
Series [8] relates to Pseudomonas aeruginosa PAE19-3. The conditions noted are these: PAE19-3. The procedure, abridged:
as §1

A short description of series [9]: Nephrotoxicity assay: in vitro cytotoxicity of HK-2 cells by CCK-8 assay. The conditions noted are these: human, HK-2 cells (human renal), 72 h incubation with drug-containing medium. The procedure, abridged:
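Compounds in sterile water, diluted to final 500, 250, 200, 100, 50, 25 and 12.5 µg/mL, were applied for 72 h to human HK-2 kidney cells. Absorbance at 450 nm after 3 h CCK-8 gave viability against untreated wells, and IC50 came from logarithmic regression; three replicates.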

Drawing on patent EP4725957A1, “GROUP OF CYCLIC ALKALINE LIPOPEPTIDE COMPOUNDS, AND PREPARATION METHOD THEREFOR AND USE THEREOF” (Institute of Medicinal Biotechnology, Chinese Academy of …, priority 2023, dated 2024), this text covers MIC and IC50 for 8 molecules.

The term MIC denotes the smallest concentration in the dilution series that meets the test's criterion for growth inhibition. Higher therefore signals a need for much substance. By IC50 is commonly meant the point on the concentration scale where inhibition reaches its midpoint.

In brackets after ≈: the same amount, converted by molar mass. Numbered stars: 1 amine (or outer) side, 2 acyl side, 3 side chain; on linkers, the order of the positions; unused ones are H or OH. Bridge positions count the residues as written; N and C are the ends. Square brackets hold non-standard residues; d marks the D form. Peptide text beside a SMILES is read from it. * marks the point of attachment. X2 = O=C([C@H](CNCS(=O)(=O)O)N[*:1])[*:2]; Heptanoyl(6-Me) = CC(C)CCCCC(=O)*; dOrn = NCCC[C@@H](N)C(=O)O; Nonanoyl = CCCCCCCCC(=O)*; X1 = CC[C@H](C)CCCCC(=O)*; dDab = NCC[C@@H](N)C(=O)O; Heptanoyl = CCCCCCC(=O)*; Orn = NCCC[C@H](N)C(=O)O; dDap = NC[C@@H](N)C(=O)O; Dab = NCC[C@H](N)C(=O)O; Dap = NC[C@H](N)C(=O)O

Take `CCCCCCC(=O)N[C@@H](CCN)C(=O)N[C@H](C(=O)N[C@H](CN)C(=O)N[C@H]1CCNC(=O)[C@H]([C@@H](C)O)NC(=O)[C@H](CCN)NC(=O)[C@H](CCN)NC(=O)[C@H](CC(C)C)NC(=O)[C@@H](Cc2ccccc2)NC(=O)[C@H](CCN)NC1=O)[C@@H](C)O` [Compound 34, Heptanoyl-Dab-Thr-D-Dap-ring(4-10)[Dab-Dab-D-Phe-Leu-Dab-Dab-Thr]] (Heptanoyl-[Dab]T[dDap][Dab][Dab][dF]L[Dab][Dab]T; lactam 4-C): the MIC in series [1], in series [2], in series [3], in series [4], in [5] and in [6] was 0.06 µg/mL (≈ 0.0517 µM) throughout. Further, the MIC in series [7] is 0.06 µg/mL (≈ 0.0517 µM); in [8] it was 0.5 µg/mL (≈ 0.431 µM). The molecule further returned an IC50 at 72 h in [9] of 298 ± 3.7 µg/mL (≈ 256 µM).

For `CCCCCCC(=O)N[C@@H](CCN)C(=O)N[C@H](C(=O)N[C@H](CCCN)C(=O)N[C@H]1CCNC(=O)[C@H]([C@@H](C)O)NC(=O)[C@H](CCN)NC(=O)[C@H](CCN)NC(=O)[C@H]([C@@H](C)O)NC(=O)[C@@H](Cc2ccccc2)NC(=O)[C@H](CCN)NC1=O)[C@@H](C)O` [Compound 24, Heptanoyl-Dab-Thr-D-Orn-ring(4-10)[Dab-Dab-D-Phe-Thr-Dab-Dab-Thr]] (Heptanoyl-[Dab]T[dOrn][Dab][Dab][dF]T[Dab][Dab]T; lactam 4-C), the MIC in series [1] is reported as 0.06 µg/mL (≈ 0.051 µM); in [2] it was 0.125 µg/mL (≈ 0.106 µM); in series [3], 0.06 µg/mL (≈ 0.051 µM); in [4], at most 0.03 µg/mL; in series [5], 0.125 µg/mL (≈ 0.106 µM); in series [6] it was 0.5 µg/mL (≈ 0.425 µM). Besides, the MIC in series [7] was at most 0.03 µg/mL; in series [8], 2 µg/mL (≈ 1.7 µM). Also, the IC50 at 72 h in series [9] was above 500 µg/mL.

As to `CCCCCCCCC(=O)N[C@@H](CCN)C(=O)N[C@H](C(=O)N[C@@H](CCCN)C(=O)N[C@H]1CCNC(=O)[C@H]([C@@H](C)O)NC(=O)[C@H](CCN)NC(=O)[C@H](CCN)NC(=O)[C@H]([C@@H](C)O)NC(=O)[C@@H](Cc2ccccc2)NC(=O)[C@H](CCN)NC1=O)[C@@H](C)O` [Compound 30, Nonanoyl-Dab-Thr-Orn-ring(4-10)[Dab-Dab-D-Phe-Thr-Dab-Dab-Thr]] (Nonanoyl-[Dab]T[Orn][Dab][Dab][dF]T[Dab][Dab]T; lactam 4-C), the MIC came out at 0.06 µg/mL (≈ 0.0498 µM) in series [1]; 0.03 µg/mL (≈ 0.0249 µM) in series [2]; 0.03 µg/mL (≈ 0.0249 µM) in series [3]; 0.03 µg/mL (≈ 0.0249 µM) in series [4]; 0.125 µg/mL (≈ 0.104 µM) in series [5]; 0.03 µg/mL (≈ 0.0249 µM) in [6]. For the same molecule, the MIC in [7] was found to be 0.03 µg/mL (≈ 0.0249 µM); in [8], 0.5 µg/mL (≈ 0.415 µM). The IC50 at 72 h in series [9] was 270 ± 13.1 µg/mL (≈ 224 µM).

As for `CCCCCCC(=O)N[C@@H](CCN)C(=O)N[C@H](C(=O)N[C@H](CO)C(=O)N[C@H]1CCNC(=O)[C@H]([C@@H](C)O)NC(=O)[C@H](CCN)NC(=O)[C@H](CCCN)NC(=O)[C@H]([C@@H](C)O)NC(=O)[C@@H](Cc2ccccc2)NC(=O)[C@H](CCN)NC1=O)[C@@H](C)O` [Compound 79, Heptanoyl-Dab-Thr-D-Ser-ring(4-10)[Dab-Dab-D-Phe-Thr-Orn-Dab-Thr]] (Heptanoyl-[Dab]T[dS][Dab][Dab][dF]T[Orn][Dab]T; lactam 4-C), the MIC in series [1] was 0.03 µg/mL (≈ 0.0258 µM); in series [2] it was 0.5 µg/mL (≈ 0.429 µM); in series [3] it was 0.25 µg/mL (≈ 0.215 µM); in series [4], 0.03 µg/mL (≈ 0.0258 µM); in series [5], 0.06 µg/mL (≈ 0.0515 µM); in series [6], above 64 µg/mL. The MIC in [7] is listed as 0.03 µg/mL (≈ 0.0258 µM); in series [8] it was 64 µg/mL (≈ 55 µM). Also, in [9], the IC50 at 72 h was above 500 µg/mL.

As for `CC(C)CCCCC(=O)N[C@@H](CCN)C(=O)N[C@H](C(=O)N[C@@H](CNCS(=O)(=O)O)C(=O)N[C@H]1CCNC(=O)[C@H]([C@@H](C)O)NC(=O)[C@H](CCN)NC(=O)[C@H](CCN)NC(=O)[C@H]([C@@H](C)O)NC(=O)[C@@H](Cc2ccccc2)NC(=O)[C@H](CCN)NC1=O)[C@@H](C)O` [Compound 112, 6-methylheptanoyl-Dab-Thr-Dap(CH2SO3H)-ring(4-10)[Dab-Dab-D-Phe-Thr-Dab-Dab-Thr]] ({Heptanoyl(6-Me)}-[Dab]T[X2][Dab][Dab][dF]T[Dab][Dab]T; lactam 4-C), the MIC in [1] turned out to be 0.06 µg/mL (≈ 0.0477 µM); in series [2], 0.125 µg/mL (≈ 0.0994 µM); in series [3], 0.125 µg/mL (≈ 0.0994 µM); in series [4] it was 0.03 µg/mL (≈ 0.0239 µM); in [5], 0.06 µg/mL (≈ 0.0477 µM); in [6] it was 0.25 µg/mL (≈ 0.199 µM). The MIC in series [7] amounted to 0.03 µg/mL (≈ 0.0239 µM); in series [8], 0.25 µg/mL (≈ 0.199 µM). The molecule also displayed an IC50 at 72 h in [9] above 500 µg/mL.

As to `CC[C@H](C)CCCCC(=O)N[C@@H](CN)C(=O)N[C@H](C(=O)N[C@H](CCN)C(=O)N[C@H]1CCNC(=O)[C@H]([C@@H](C)O)NC(=O)[C@H](CCN)NC(=O)[C@H](CCN)NC(=O)[C@H](CC(C)C)NC(=O)[C@@H](Cc2ccccc2)NC(=O)[C@H](CCN)NC1=O)[C@@H](C)O` [Compound 91, (S)-6-methyloctanoyl-Dap-Thr-D-Dab-ring(4-10)[Dab-Dab-D-Phe-Leu-Dab-Dab-Thr]] (X1-[Dap]T[dDab][Dab][Dab][dF]L[Dab][Dab]T; lactam 4-C), the MIC was 0.03 µg/mL (≈ 0.0252 µM) in [1]; 0.03 µg/mL (≈ 0.0252 µM) in series [2]; 0.03 µg/mL (≈ 0.0252 µM) in [3]; 0.03 µg/mL (≈ 0.0252 µM) in series [4]; 0.03 µg/mL (≈ 0.0252 µM) in [5]; 0.5 µg/mL (≈ 0.42 µM) in [6]. Besides, the MIC is listed as 0.03 µg/mL (≈ 0.0252 µM) in [7] and 0.5 µg/mL (≈ 0.42 µM) in series [8]. Moreover, the IC50 at 72 h in [9] came to 126 ± 19.2 µg/mL (≈ 106 µM).

Consider `CCCCCCCCC(=O)N[C@@H](CCN)C(=O)N[C@H](C(=O)N[C@@H](CN)C(=O)N[C@H]1CCNC(=O)[C@H]([C@@H](C)O)NC(=O)[C@H](CCN)NC(=O)[C@H](CCN)NC(=O)[C@H]([C@@H](C)O)NC(=O)[C@@H](Cc2ccccc2)NC(=O)[C@H](CCN)NC1=O)[C@@H](C)O` [Compound 10, Nonanoyl-Dab-Thr-Dap-ring(4-10)[Dab-Dab-D-Phe-Thr-Dab-Dab-Thr]] (Nonanoyl-[Dab]T[Dap][Dab][Dab][dF]T[Dab][Dab]T; lactam 4-C), for which the MIC in series [1] is 0.06 µg/mL (≈ 0.051 µM); in series [2], 0.06 µg/mL (≈ 0.051 µM); in [3], 0.06 µg/mL (≈ 0.051 µM); in [4], 0.06 µg/mL (≈ 0.051 µM); in series [5] it was 0.06 µg/mL (≈ 0.051 µM); in series [6] it was 0.25 µg/mL (≈ 0.212 µM). For the same molecule, the MIC was found to be 0.06 µg/mL (≈ 0.051 µM) in series [7] and 0.5 µg/mL (≈ 0.425 µM) in series [8]. In [9], half-maximal inhibition (IC50 at 72 h) required 350 ± 30.7 µg/mL (≈ 297 µM).

Regarding `CCCCCCCCC(=O)N[C@@H](CCN)C(=O)N[C@H](C(=O)N[C@H](CO)C(=O)N[C@H]1CCNC(=O)[C@H]([C@@H](C)O)NC(=O)[C@H](CCN)NC(=O)[C@H](CCN)NC(=O)[C@H]([C@@H](C)O)NC(=O)[C@@H](Cc2ccccc2)NC(=O)[C@H](CCCN)NC1=O)[C@@H](C)O` [Compound 70, Nonanoyl-Dab-Thr-D-Ser-ring(4-10)[Dab-Orn-D-Phe-Thr-Dab-Dab-Thr]] (Nonanoyl-[Dab]T[dS][Dab][Orn][dF]T[Dab][Dab]T; lactam 4-C), the MIC in series [1] turned out to be 0.25 µg/mL (≈ 0.21 µM); in series [2], 0.5 µg/mL (≈ 0.419 µM); in series [3] it was 0.25 µg/mL (≈ 0.21 µM); in [4], 0.5 µg/mL (≈ 0.419 µM); in series [5], 0.25 µg/mL (≈ 0.21 µM); in [6] it was 64 µg/mL (≈ 53.7 µM). Further, the MIC is 0.5 µg/mL (≈ 0.419 µM) in series [7] and 8 µg/mL (≈ 6.71 µM) in [8]. In series [9], this molecule returned an IC50 at 72 h of 384 ± 29.5 µg/mL (≈ 322 µM).
